Test results reported in patent publication US11285147B2, “Neuroprotective agents for treatment of neurodegenerative diseases” (WAYNE STATE UNIVERSITY, priority 2018, dated 2022).

Key:
Aβ1-42 fibrils = biological target: T1, Aβ1-42 fibrils (Homo sapiens, UniProt P05067); experiment: Dissociation of preformed Aβ1-42 aggregates, ThT fluorescence; type: biochemical; conditions: Aβ1-42 fibrils 10 μM, test compounds 20 μM, 24 h
T1 construct: disaggregation activity of Aβ1-42 peptide
Method: (§1) FIGS. 3A and 3B. Inhibition and dissociation of Aβ1-42 oligomer formation by: a) ThT fluorescence of Aβ1-42 (10 μM) with or without incubation with test compounds (20 μM) for 24 h. The ThT fluorescence of Aβ1-42 at 0 h was taken as 100%. b) Aβ1-42 fibrils (10 μM) were incubated with test compounds (20 μM) for a period of 24 h. The ThT fluorescence of Aβ1-42 aggregates at 0 h was considered as 100%
as §1, with “3B show inhibition” for “3B. Inhibition”
(§2) Similar to the effect of the drugs on α-syn, interaction of compounds with Aβ1-42 peptide clearly indicated a significant effect in inhibiting aggregation in a time dependent manner as indicated by decrease in ThT activity (FIG. 3a). Similarly, test compounds were able to decrease ThT activity of preformed Aβ aggregates in a time dependent manner, reflecting its effect in disrupting structure of aggregates (FIG. 3b). On the other hand, incubation of aggregates itself led to a gradual increase in ThT activity (FIG. 3b).

αSN (alpha synuclein) = αSN (alpha synuclein) (Homo sapiens, UniProt P37840); experiment: Inhibition of αSN fibrillization, ThT fluorescence assay; type: biochemical
Method: FIGS. 2A-B. (A) Inhibition of aSN fibrillization by D-687 and D-688. The drugs were incubated with aSN over a period of six days and the fibrilization was measured by ThT fluorescence assay. Data Values shown are means±SEMs of three independent experiments. (B) PC12 cells were treated with 10 μM prefabricated aSN aggregates formed in presence of drugs collected at day 0 and day 6. Values shown are means±SEMs of three independent experiments performed in 4-6 replicates. One way ANOVA analysis followed by Tukey's Multiple Comparison post hoc test were performed. (*p<0.01 compared to the control).
We assessed the ability of our compounds, D-687 and D-688, to alter aggregation and cytotoxicity after co-incubating αSN with these drugs for 6 days followed by evaluation of ThT fluorescence activity and cell viability experiment with the PC12 cells. […] In order to maintain identical condition, cellular viability was determined by using samples from various experiments diluted to maintain a final concentration of 10 μM of αSN and 20 μM of drugs.
FIG. 2 provides (A) Inhibition of aSN fibrillization by D-687 and D-688. The drugs were incubated with aSN over a period of six days and the fibrilization was measured by ThT fluorescence assay. Data Values shown are means±SEMs of three independent experiments. […]

Aβ1-42 peptide = biological target: T2, Aβ1-42 peptide (Homo sapiens, UniProt P05067); experiment: Inhibition of Aβ1-42 aggregation, ThT fluorescence; type: biochemical; conditions: Aβ1-42 10 μM, test compounds 20 μM, 24 h
T2 construct: disaggregation activity of Aβ1-42 peptide
Method: as §1
as §1, with “3B show inhibition” for “3B. Inhibition”
as §2

D2L receptor = D2L receptor (Rattus norvegicus, UniProt P61169); experiment: biochemical
D3 receptor = D3 receptor (UniProt P19020); type: binding; conditions: read-out: Ki (nM) D3, [3H]spiroperidol; cloned D3 in HEK-293 cells; mean ± SEM of 3-6 experiments

T2 sequence (P05067 672-713 limits assumed): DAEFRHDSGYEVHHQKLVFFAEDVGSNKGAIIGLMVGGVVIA
T1 sequence (P05067 672-713 limits assumed): as above
D2L receptor, sequence (P61169 whole entry): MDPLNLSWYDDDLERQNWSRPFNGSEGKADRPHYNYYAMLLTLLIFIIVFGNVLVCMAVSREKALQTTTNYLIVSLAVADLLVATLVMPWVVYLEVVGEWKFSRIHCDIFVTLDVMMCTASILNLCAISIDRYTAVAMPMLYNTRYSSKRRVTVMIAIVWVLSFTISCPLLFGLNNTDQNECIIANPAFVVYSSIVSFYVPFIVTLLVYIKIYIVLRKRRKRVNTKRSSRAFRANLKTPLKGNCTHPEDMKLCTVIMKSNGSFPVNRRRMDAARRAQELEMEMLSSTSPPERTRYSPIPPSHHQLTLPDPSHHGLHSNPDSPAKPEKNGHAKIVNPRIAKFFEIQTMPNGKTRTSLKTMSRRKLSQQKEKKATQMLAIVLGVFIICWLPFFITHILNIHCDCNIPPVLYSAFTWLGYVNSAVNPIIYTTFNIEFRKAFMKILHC

Q: “4′-[4-(2-Diisopropylamino-ethyl)-piperazin-1-yl]-biphenyl-3,4-diol [Compound D-687]” was tested. Which “Disaggregation of preformed Aβ1-42 aggregates” value (Aβ1-42 fibrils) did it give?
A: Its value is “disaggregate”.

Q: What about the “Inhibition of aggregation of aSN protein (overall conclusion)” value (αSN (alpha synuclein)) of the same compound?
A: The value was “potently inhibited aggregation”.

Q: And the “Inhibition of aggregation of Aβ1-42 peptide” value (Aβ1-42 peptide)?
A: Its value is “potently inhibited aggregation”.

Q: For CCCN(CCc1cc(O)c(CCN(CCC)[C@H]2CCc3nc(N)sc3C2)cc1O)[C@H]1CCc2nc(N)sc2C1 [12 (D-673), 2,5-bis(2-(((S)-2-amino-4,5,6,7-tetrahydrobenzo[d]thiazol-6-yl)(propyl)amino)-ethyl)benzene-1,4-diol], which Ki (D2L receptor) is on record?
A: Its Ki is 54.7 ± 3.3 nM.

Q: And the Ki (D3 receptor)?
A: The Ki was 6.87 ± 0.11 nM.

Q: Which results are given for CCN(CC)CCN1CCN(c2ccc(-c3ccc(O)c(O)c3)cc2)CC1 [Compound D690, 4′-[4-(2-Diethylamino-ethyl)-piperazin-1-yl]-biphenyl-3,4-diol]?
A: Disaggregation of preformed Aβ1-42 aggregates (Aβ1-42 fibrils): disaggregate; Inhibition of aggregation of aSN protein (overall conclusion) (αSN (alpha synuclein)): potently inhibited aggregation; Inhibition of aggregation of Aβ1-42 peptide (Aβ1-42 peptide): potently inhibited aggregation
